According to patent US20050182002A1, “Agents which interact with a serotonin transporter for the treatment of cancer” (priority 2002, published 2005):
Where two headings read alike, the source gives them in different places.

What was measured:
[1] = system: L3055 BL cells; experiment: TUNEL DNA strand breaks, FACS; type: cell-based; conditions: fluoxetine 20 μM, 17 h, 10^6/ml; Means ± SE of 3; control 17.8 ± 3.7
Excerpt: Neither BL cells nor their normal germinal centre B cell equivalents tended to produce the extensive “DNA ladders” that can be seen as a result of DNA fragmentation when other cells (e.g. thymocytes) undergo apoptosis.

[2] = system: L3055 cells; experiment: Caspase activity (FAM-VAD-FMK, FACS); type: cell-based; conditions: single dose for 24 hours; fluoxetine 10 μM, paroxetine 10 μM, citalopram 100 μM
Method: Caspase activity was detected using the CaspaTag Caspase Activity Kit (Intergen, Oxford, UK). Cells cultured under the conditions indicated below were harvested into 300 μl of culture medium at a cell density of 10^6cells/ml, followed by the addition of […] of a 30×working solution of FAM-VAD-FMK (a carboxy fluorescent tagged caspase inhibitor) (Intergen Co., USA). Cells were then incubated for 1 hr at 37° C. under 5% CO2 while protecting the tubes from light. At the end of the incubation, they were washed twice in 2 ml of 1×washing buffer, followed by addition of 2 μl of PI to distinguish dead cells from live cells, then analysed on an EPICS XL-MCL flow cytometer or by confocal microscopy. For the latter, treated cells were harvested into 300 μl of culture medium containing 10 μl of FAM-VAD-FMK before incubating for 1 hr under the conditions described above. Next, 1.5 μl of Hoechst 33342 stain was added for 5 min, and cells were washed twice in 2 ml of 1×washing buffer following the addition of 1 μl of PI.

[3] = system: L3055 cells; experiment: Syto 16 / propidium iodide staining (viable, apoptotic, necrotic); type: cell-based
Method: Changes in the viability of cells cultured under conditions indicated below were quantified by assessment of forward and 90° (side) light scatter of cells as previously described (Dive C, et al. Biochimica Biophysica Acta (1992); 1133:275-285) using an EPICS XL-MCL flow cytometer (Beckman Coulter, Miami, Fla., USA). Prior to analysis, cells were harvested into polythene FACS tubes, and fixed at 4° C. in 400 μl of FACS buffer [PBS with 5% NGS and 2% Formaldehyde] (BDH/MERCK). Cells were gated in two populations (viable and dead) according to their forward and side light scatter. Viability was expressed as a percentage of the total number of cells residing in the viable and non-viable gates. Cells were also analysed according to Schuurhuis et al (Schuurhuis G J, et al. Exp. Haematol. (1997); 25:754-759) in order to assess the percentages within treated populations of those that were viable, apoptotic, or necrotic. Syto 16 was added at a concentration of 250 nM in PBS to 500,000 cells and incubated at RT for 30 min, at which time 5 μg/ml propidium iodide (PI) was added. Samples were then analysed immediately by FACS and a 2D plot generated of syto 16 fluorescence versus PI fluorescence: syto 16 is taken up only by viable cells whereas Pi exclusively enters necrotic cells—syto 16^−ve/PI^−ve cells are deemed apoptotic.

[4] = system: biopsylike BL cells; experiment: PARP-1 cleavage; type: cell-based; conditions: 20 μM fluoxetine
[5] = system: normal peripheral blood mononuclear cells (PBMC); conditions: 24 h
Excerpt: Patients on SSRI's for depression sustain their circulating levels for months on repeated administrations. Also, circulating levels are believed to represent a gross underestimation of the accumulation of SSRI in body tissues. The lymphoma are, by definition, tumours of lymphoid tissues (e.g. lymph nodes).

[6] = system: L3055 BL cells; experiment: DNA synthesis by [3H]-thymidine incorporation in L3055 cells; type: cell-based
Method: DNA synthesis was determined by measuring ^3H-thymidine ([^3H]Tdr; Amersham, UK) incorporation into cellular DNA. Cells were cultured in 200 μL of supplemented medium at densities and for times indicated below in flat-bottomed, 96-well tissue culture plates (Becton Dickinson, Oxford, U K) then pulsed for the final 4 h with 50 μl of 10 μCi/ml [^3H]Tdr before harvesting on a Skatron cell harvester (Helis Bio Ltd, Newmarket, UK).

[7] = system: L3055 cells; experiment: Intracellular free Ca2+; type: cell-based
Excerpt: The increase in intracellular free Ca^2+ is known to be an important step in the induction of apoptosis.

[8] = system: biopsylike BL cells; experiment: Real-time RT-PCR gene expression; type: cell-based; conditions: data not shown
Excerpt: BL is characterised by translocations of one c-myc allele to one of the immunoglobulin loci and the extraordinarily high growth rate that characterises these tumours reflects the pro-proliferative actions of the translocated gene. Despite its hallmark translocation to immunoglobulin loci, the BL-associated constitutive expression of c-myc remains dependent on the binding of the recognised c-myc transcription factor Nm23-H2 to a PuF site within the regulatory sequence of the translocated gene.

[9] = system: actively cycling tonsilar B cells; experiment: DNA synthesis in actively cycling tonsilar B cells; type: cell-based; conditions: overnight fluoxetine up to 20 μM after 2 days stimulation with SAC (± CD40L) or PMA (± ionomycin)
[10] = system: non-BL lines Nalm-6, RPMI 8226, Jurkat, J10, and CEM; experiment: DNA synthesis (3H-Thymidine incorporation) in non-BL lines; type: cell-based; conditions: data not shown
[11] = system: L3055 cells; experiment: Cell cycle analysis (propidium iodide, flow cytometry); type: cell-based; conditions: 24 hr; each at its maximal concentration (5-HT 150 μM, fluoxetine 10 μM, anti-μ chain antibody 10 μg/ml)
Method: Cells cultured under conditions indicated below were harvested into 100 μl of 1×PBS followed by 400 μl cell cycle buffer containing Triton X-100 and propidium iodide and left to incubate at 4° C. for 1 hr to allow staining of DNA. The degree of fluorescence emitted by bound PI is directly proportional to the amount of DNA in each cell and was measured by flow cytometry as previously described (MacDonald I, et al. Blood (1996); 87:1147-1154). Results are expressed as percentage of viable cells residing in each phase of the cycle.

[12] = system: L3055 BL cells; experiment: Annexin V binding (phosphatidylserine exposure), FACS; type: cell-based; conditions: fluoxetine 20 μM, 17 h, 10^6/ml, Means ± SE of 3
Excerpt: Annexin V binding to phosphatidylserine exposed on the outer leaflet of cells to signal for phagocytic engulfment is another commonly used measure of programmed death although caution should be applied when using as a sole indicator for assessing apoptosis in B cells.

Compound: CNCCC(Oc1ccc(C(F)(F)F)cc1)c1ccccc1 (stereo not shown) [fluoxetine]
- % TUNEL positive [1]: 35.7 ± 7.6%
- effect on number of cells showing caspase activity (in words) [2]: significant effect on the numbers of cells showing caspase activity
- lymphoma cells entering apoptosis ([3]; fluoxetine 10-15 μM, 24 hours): about 40%
- number of viable cells (syto 16+ve/PI−ve) (in words) ([3]; increasing concentrations, 24 hr): directly drove the lymphoma cells to die
- PARP-1 cleavage (in words) [4]: extensive PARP-1 cleavage
- viability of PBMC ([5]; 5 μM): 97.3±0.88%
- viability of PBMC ([5]; 10 μM): 97.3±0.33%
- influence of pre-treatment on 5-HT-dependent inhibition of DNA synthesis (in words) ([6]; cells pre-treated with agent before 5-HT): substantially reversed
- effect on DNA synthesis (in words) ([6]; single dose, range of concentrations, [3H]-thymidine incorporation at 24 hr): dose dependent inhibitory effect
- basal Ca2+ (in words) ([7]; data not shown): increase in basal Ca^2+
- levels of intracellular free Ca2+ (in words) ([7]; fluoxetine concentration range (FIG. 23)): sustained increase in the levels of intracellular free Ca^2+
- reduction in levels of c-myc ([8]; 6 h exposure to fluoxetine): ~60%
- reduction in levels of nm23-H2 ([8]; 6 h exposure to fluoxetine): ~60%
- decrease in the expression of nm23-H1 mRNA ([8]; fluoxetine): 75%
- inhibition of DNA synthesis in actively cycling B cells (in words) [9]: Little inhibition of DNA synthesis
- level of 3H-Thymidine incorporation in non-BL lines (in words) [10]: either no, or only minor reductions
- cell cycle status (in words) [11]: accumulation of arresting cells in the G0/G1 compartment
- Annexin V binding MFI ([12]; control 3.9 ± 0.2): 26.1 ± 8.4
- Annexin V binding % positive ([12]; control 52.3 ± 1.8): 81.1 ± 3.9%
